According to US7053178B2, “Synthetic peptides and kits for diagnosis of anti-phospholipid syndrome” (Yeda Research Development Co., LTD, priority 1998, dated 2006):
Where no end group is shown, it is not given here.

What was measured:
anti-β2GPI G-3 mAb = experiment: Competition ELISA: inhibition of G-3 mAb binding to β2GPI; parameters: species or system human; conditions: 10 μM peptide concentration
Description: FIGS. 1A–1C are graphs showing inhibition of the anti-β2GPI ILA-1, ILA-3 and G-3 mAbs binding to β2GPI by competition assays using increasing concentrations of the inhibitory monomer peptides A, B and C, respectively, and of unrelated peptide D as control. The percent of inhibition was calculated as follows: % inhibition=O.D control−O.D with inhibitor/O.D control×100. Each point represents mean±SD of three different experiments.
(e) Inhibition of anti-β2GPI mAb binding to β2GPI by the inhibitory peptides. For competition ELISA tests, the anti-β2GPI mAbs (10 μg/ml) were preincubated (overnight at 4° C.) with varying concentrations of the peptides. The competition reaction was then transferred to β2GPI-coated γ-irradiated ELISA plates (Nunc), and the assay continued as described above. The percentage of inhibition was calculated as follows: % inhibition=O.D control −O.D with inhibitor/O.D control×100.
(2a) The specificity of interaction of the mAbs with the corresponding synthetic peptides A, B, C and control peptide D as monomers, was assessed by inhibition experiments as described in Materials and Methods, sections (e) and (f).

anti-β2GPI ILA-1 mAb = experiment: ELISA for adhesion molecule expression on HUVEC exposed to ILA-1 mAb; type: cell-based, human; conditions: ILA-1 mAb preincubated with peptide
Description: FIG. 4 is a bar graph showing inhibition of expression of the adhesion molecules E-selectin, intracellular adhesion molecule-1 (ICAM-1) and vascular cell adhesion molecule-1 (VCAM-1) on HUVEC by specific inhibitory monomer peptides A, B, or C. To the HUVEC incubated with β2GPI, were added anti-β2GPI ILA-1, ILA-3 and G-3 mAbs with and without preincubation (2 h) with the peptide monomers A, B and C, respectively, and control peptide D. The expression of adhesion molecules was probed by ELISA employing biotinylated anti-human ICAM-1, VCAM-1, E-selectin and streptavidin-alkaline phosphatase. Each point represents mean±SD of three different experiments.
(h) ELISA for detecting the expression of adhesion molecules following exposure to anti-β2GPI mAbs and the inhibitory peptides. HUVEC cells grown in 96-well plates and preincubated with mAbs, with and without different concentrations of specific and irrelevant peptides (100 ug/ml), were washed, fixed with 0.1% glutaraldehyde, and then treated with PBS containing 0.2% Triton-X100 in order to permeabilize the cell membrane (Adamson et al., 1996). The plates were blocked with 3% BSA and incubated with biotinylated mouse anti-human E-selectin, anti-human intracellular adhesion molecule-1 (ICAM-1) or anti-human vascular cell adhesion molecule-1 (VCAM-1) (PharMingen, Torreyana Road, San Diego, Calif.) 1 μg/ml for 1 hour. The cells were then exposed to streptavidin alkaline phosphatase (Jackson) and appropriate substrate.
The enhancement of monocytes to endothelial cells followed by increase in the amount of adhesion molecules expression, as a result of exposure of endothelial cells to anti-β2GPI mAbs, has been observed previously at the laboratory of one of the present inventors. The effect of each specific peptide monomer A, B, C on the expression of the adhesion molecules E-selectin, ICAM-1 and VCAM-1 on HUVEC caused by the corresponding anti-β2GPI mAb, was examined according to Materials and Methods, section (h). […]

[1] = tested on: experimental APS induced by anti-β2GPI mAb ILA-1; experiment: Murine experimental APS induced by ILA-1 mAb; type: in vivo, BALB/c mice; conditions: for aPTT (activated partial thromboplastin time): mice infused i.v. with 20 μg ILA-1 mAb day 0 of pregnancy; for Platelet count / % Fetal loss (Resorbed fetuses/Total fetuses): mice infused with ILA-1 mAb
Description: (i) Mice: Female BALB/c mice, aged 10–12 weeks, were purchased from Tel-Aviv University Animal House, Israel. The females were caged overnight with BALB/c males and examined for vaginal plug next morning. The presence of the plug was considered as day 0 of pregnancy in all the studied groups. (j) Induction of murine experimental APS. Mice were infused intravenously with 20 μg of each one of the anti-β2GPI ILA-1, ILA-3, and G-3 mAbs at day 0 (the day at which a vaginal plug was observed following mating) (Blank et al., 1991), 6 hours later the mice received daily 40 μg/mouse of the tested peptides during 3 days. The mice were bled and sacrificed on day 15 of pregnancy. Fetal resorptions, activated partial thromboplastin time and platelet counts (markers of the APS-equivalent in mice) were determined as described (Blank et al., 1991). Significant fetal loss, thrombocytopenia and prolonged activated thromboplastin time (aPTT) were induced in naive mice following passive intravenous administration of the three anti-β2GPI mAbs ILA-1, ILA-3 and G-3, as described in Materials and Methods, section (j). The clinical manifestations of the experimental APS were prevented by infusion of the specific peptide monomers A, B, C which were delivered to the mice with the corresponding pathogenic anti-β2GPI mAbs, as shown in Table 2. […] Similarly, mice which were preinfused with control IgM and received a cocktail of the peptide monomers (A+B+C), were not affected.

[2] = peptide 40 μg/mouse daily 3 days, day 15

Sequence | inhibition of G-3 mAb binding to β2GPI (anti-β2GPI G-3 mAb) [%] | E-selectin expression by HUVEC (anti-β2GPI ILA-1 mAb) [O.D.] | ICAM-1 expression by HUVEC (anti-β2GPI ILA-1 mAb) [O.D.] | VCAM-1 expression by HUVEC (anti-β2GPI ILA-1 mAb) [O.D.] | aPTT (activated partial thromboplastin time) [1, 2] [s] | aPTT (activated partial thromboplastin time) ([1]; peptide 40 μg/mouse daily 3 days, day 15, listed as peptide A) [s] | Platelet count [1] [cells/mm^3×10^3] | % Fetal loss (Resorbed fetuses/Total fetuses) [1, 2] [%] | Platelet count [1, 2] | % Fetal loss (Resorbed fetuses/Total fetuses) ([1]; peptide 40 μg/mouse daily 3 days, day 15, listed as peptide monomer A) [%]
CATLRVYKGG [Peptide C] | 98 | – | – | – | – | – | – | – | – | –
NTLKTPRVGG [Peptide A] | – | 0.239±0.064 | 0.204±0.072 | 0.252±0.071 | 33 ± 4 | 33 ± 4 | 989±103 | 8 ± 2 | 989 | 8±2
